SMILES strings stand for the structures.

Assay [1] has as its target carbonic anhydrase (Helicobacter pylori, UniProt O25798).
Description: (§1) Inhibition of Helicobacter pylori recombinant CA
Assay [2] has as its target T1, Carbonic anhydrase (Helicobacter pylori (strain ATCC 700392 / 26695) (Campylobacterpylori), UniProt O24855).
T1 sequence (O24855 whole entry): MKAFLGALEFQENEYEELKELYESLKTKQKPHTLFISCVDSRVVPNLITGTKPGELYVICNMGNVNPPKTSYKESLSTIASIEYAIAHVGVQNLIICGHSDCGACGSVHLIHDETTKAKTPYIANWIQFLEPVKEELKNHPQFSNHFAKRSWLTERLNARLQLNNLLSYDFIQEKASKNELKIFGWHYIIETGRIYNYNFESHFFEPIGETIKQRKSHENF
Description: as §1

Chain of carbonic anhydrase (O25798 1-202): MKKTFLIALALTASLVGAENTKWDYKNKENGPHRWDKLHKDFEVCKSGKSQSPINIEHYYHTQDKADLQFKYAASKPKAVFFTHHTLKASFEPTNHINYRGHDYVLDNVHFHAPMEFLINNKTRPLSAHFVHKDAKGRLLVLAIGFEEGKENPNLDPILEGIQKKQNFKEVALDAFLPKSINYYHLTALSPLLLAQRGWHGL

On to `NNc1ccccc1S(N)(=O)=O`, for which, at carbonic anhydrase [1], the inhibitory constant (Ki) was determined as 562 nM.
The same measure, in the same setting: in the case of `Cc1ccc(S(N)(=O)=O)cc1` [P-TOLUENESULFONAMIDE] it was 473 nM; in that of `CCN[C@H]1CN(CCCOC)S(=O)(=O)c2sc(S(N)(=O)=O)cc21` [BRINZOLAMIDE], 246 nM.
The compound `CC1(C)O[C@@H]2[C@@H](CO[C@@]3(COS(N)(=O)=O)OC(C)(C)O[C@@H]23)O1` [TOPIRAMATE] returned a Ki on Carbonic anhydrase [2] of 205 nM.
As for `Nc1ccc(S(N)(=O)=O)cc1Br`, the Ki at carbonic anhydrase [1] came to 463 nM.
`Nc1ccc(S(=O)(=O)NCc2ccc(S(N)(=O)=O)cc2)cc1` had a Ki at carbonic anhydrase [1] of 124 nM.
In the case of `NS(=O)(=O)c1ccc(CO)cc1`, affinity on carbonic anhydrase [1] was put at a Ki of 870 nM.
Consider `Nc1nccc(Nc2ccc(S(N)(=O)=O)cc2)n1`, for which the Ki at carbonic anhydrase [1] is 72 nM.
As for `CCOc1ccc2nc(S(N)(=O)=O)sc2c1` [ETHOXZOLAMIDE], the Ki on carbonic anhydrase [1] amounted to 155 nM.
The same measure, in the same setting: in the case of `NS(=O)(=O)c1nc2ccc(O)cc2s1` it was 174 nM; in that of `Nc1ccc(S(=O)(=O)Nc2nnc(S(N)(=O)=O)s2)cc1`, 213 nM.
On the same count and under the same terms, next, `NS(=O)(=O)c1ccc(C(=O)O)cc1` [CARZENIDE]: 1080 nM.
`Nc1cc(Cl)c(S(N)(=O)=O)cc1S(N)(=O)=O` displayed a Ki at carbonic anhydrase [1] of 41 nM.
The compound `Cn1nc(S(N)(=O)=O)sc1=N` yielded a Ki on carbonic anhydrase [1] of 494 nM.
`Nc1cc(C(F)(F)F)c(S(N)(=O)=O)cc1S(N)(=O)=O` [2,4-DISULFAMYLTRIFLUOROMETHYLANILINE]: affinity at carbonic anhydrase [1] was put at a Ki of 402 nM.
Same read-out and setting: next, `NS(=O)(=O)c1ccc(CCO)cc1`: 1160 nM.
Still for that read-out and setting: in the case of `Nc1ccc(S(N)(=O)=O)cc1` [SULFANILAMIDE] it was 431 nM; in that of `NCCc1ccc(S(N)(=O)=O)cc1`, 1040 nM; in that of `NS(=O)(=O)c1nnc(-c2ccccc2Cl)s1`, 84 nM.
Still for that read-out and setting: in the case of `NS(=O)(=O)c1nnc(NS(=O)(=O)c2ccccc2)s1` [BENZOLAMIDE] it was 287 nM; in that of `Nc1ccc(S(N)(=O)=O)cc1Cl`, 395 nM.
`Nc1ccc(S(=O)(=O)NCCc2ccc(S(N)(=O)=O)cc2)cc1`: the inhibitory constant (Ki) at carbonic anhydrase [1] is 96 nM.
In turn, `NCc1ccc(S(N)(=O)=O)cc1` [MAFENIDE] displayed a Ki at carbonic anhydrase [1] of 830 nM.
Same read-out and setting: in the case of `Nc1ccc(S(N)(=O)=O)cc1I` it was 504 nM; in that of `Nc1ccc(S(N)(=O)=O)cc1F`, 1310 nM; in that of `NS(=O)(=O)c1ccc(S(=O)(=O)Nc2cccc3c(Cl)c[nH]c23)cc1`, 434 nM.
